According to PubChem BioAssay AID2060494 (Molecular Pharmacology Branch, DTP, NCI, 2025):

Test system: 435261-313-R-J1-PDC complex spheroid viability
Experiment: Anticancer human tumor 435261-313-R-J1-PDC patient-derived colon adenocarcinoma cell line growth inhibition [GQUAD]
Details: for IC50: curve of first compound; for viability, T/C: stronger effect = lower value
How it was run: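 Multi-cell-type spheroids of tumor cells with HUVEC and mesenchymal stem cells, treated with drug combinations. Concentrations descend in half-log steps from near clinical Cmax, or from 10 microM where Cmax is unknown; viability read-out.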

[1] = second compound 0.0316 µM, first compound 0.0316 µM
[2] = second compound 0.0316 µM, first compound 0.1 µM
[3] = second compound 0.0316 µM, first compound 0.316 µM
[4] = second compound 0.0316 µM, first compound 1 µM
[5] = second compound 0.0316 µM, first compound 3.16 µM
[6] = second compound 0.0316 µM, first compound 10 µM
[7] = second compound 0.1 µM, first compound 0.0316 µM
[8] = second compound 0.1 µM, first compound 0.1 µM
[9] = second compound 0.1 µM, first compound 0.316 µM
[10] = second compound 0.1 µM, first compound 1 µM
[11] = second compound 0.1 µM, first compound 3.16 µM
[12] = second compound 0.1 µM, first compound 10 µM
[13] = second compound 0.316 µM, first compound 0.0316 µM
[14] = second compound 0.316 µM, first compound 0.1 µM
[15] = second compound 0.316 µM, first compound 0.316 µM
[16] = second compound 0.316 µM, first compound 1 µM
[17] = second compound 0.316 µM, first compound 3.16 µM
[18] = second compound 0.316 µM, first compound 10 µM
[19] = second compound 1 µM, first compound 0.0316 µM
[20] = second compound 1 µM, first compound 0.1 µM
[21] = second compound 1 µM, first compound 0.316 µM
[22] = second compound 1 µM, first compound 1 µM
[23] = second compound 1 µM, first compound 3.16 µM
[24] = second compound 1 µM, first compound 10 µM
[25] = second compound 3.16 µM, first compound 0.0316 µM
[26] = second compound 3.16 µM, first compound 0.1 µM
[27] = second compound 3.16 µM, first compound 0.316 µM
[28] = second compound 3.16 µM, first compound 1 µM
[29] = second compound 3.16 µM, first compound 3.16 µM
[30] = second compound 3.16 µM, first compound 10 µM
[31] = second compound 10 µM, first compound 0.0316 µM
[32] = second compound 10 µM, first compound 0.1 µM
[33] = second compound 10 µM, first compound 0.316 µM
[34] = second compound 10 µM, first compound 1 µM
[35] = second compound 10 µM, first compound 3.16 µM
[36] = second compound 10 µM, first compound 10 µM
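Also: spheroids exposed to the agents for seven days before readout.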
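For viability, T/C in this document: percent of vehicle control viability with DMSO wells as 100%.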

C#Cc1c(F)ccc2cc(O)cc(-c3ncc4c(N5CC6CCC(C5)N6)nc(OCC56CCCN5CC(F)C6)nc4c3F)c12 (stereo not drawn) + Cc1[nH]c2ccc(F)cc2c1-c1nc2c3cccnc3c3ncccc3c2[nH]1
IC50 (second compound 0.0316 µM): > 10000 nM
IC50 (second compound 0.1 µM): > 10000 nM
IC50 (second compound 0.316 µM): > 10000 nM
IC50 (second compound 1 µM): > 10000 nM
IC50 (second compound 3.16 µM): < 31.6 nM
IC50 (second compound 10 µM): < 31.6 nM
viability, T/C [1]: 94.8%
viability, T/C [2]: 106%
viability, T/C [3]: 88.9%
viability, T/C [4]: 104%
viability, T/C [5]: 65.6%
viability, T/C [6]: 58.9%
viability, T/C [7]: 107%
viability, T/C [8]: 85.4%
viability, T/C [9]: 104%
viability, T/C [10]: 62%
viability, T/C [11]: 61.1%
viability, T/C [12]: 57%
viability, T/C [13]: 64.5%
viability, T/C [14]: 111%
viability, T/C [15]: 75.8%
viability, T/C [16]: 75.4%
viability, T/C [17]: 84.7%
viability, T/C [18]: 74.4%
viability, T/C [19]: 61.8%
viability, T/C [20]: 55.1%
viability, T/C [21]: 85.6%
viability, T/C [22]: 66.9%
viability, T/C [23]: 63.5%
viability, T/C [24]: 46.3%
viability, T/C [25]: 51.2%
viability, T/C [26]: 42.9%
viability, T/C [27]: 39.6%
viability, T/C [28]: 28.4%
viability, T/C [29]: 45%
viability, T/C [30]: 0.2%
viability, T/C [31]: 24.2%
viability, T/C [32]: 28.3%
viability, T/C [33]: 28.4%
viability, T/C [34]: 37.1%
viability, T/C [35]: 29%
viability, T/C [36]: 0.26%

CC(C)(O)C1CCC(Nc2ccc3ncc(-c4cccc(C(F)(F)F)c4)n3n2)CC1 (stereo not drawn) + Cc1[nH]c2ccc(F)cc2c1-c1nc2c3cccnc3c3ncccc3c2[nH]1
IC50 (second compound 0.0316 µM): 605 nM
IC50 (second compound 0.1 µM): 683 nM
IC50 (second compound 0.316 µM): 520 nM
IC50 (second compound 1 µM): 229 nM
IC50 (second compound 3.16 µM): < 31.6 nM
IC50 (second compound 10 µM): < 31.6 nM
viability, T/C [1]: 85.1%
viability, T/C [2]: 93.4%
viability, T/C [3]: 79%
viability, T/C [4]: 27.4%
viability, T/C [5]: 6.6%
viability, T/C [6]: 11.2%
viability, T/C [7]: 80%
viability, T/C [8]: 79.6%
viability, T/C [9]: 98.3%
viability, T/C [10]: 32.2%
viability, T/C [11]: 8.63%
viability, T/C [12]: 8.09%
viability, T/C [13]: 92.8%
viability, T/C [14]: 90.7%
viability, T/C [15]: 64.5%
viability, T/C [16]: 31.5%
viability, T/C [17]: 3.9%
viability, T/C [18]: 11.5%
viability, T/C [19]: 63.4%
viability, T/C [20]: 61%
viability, T/C [21]: 44.1%
viability, T/C [22]: 27.3%
viability, T/C [23]: 6.32%
viability, T/C [24]: 5.71%
viability, T/C [25]: 23.6%
viability, T/C [26]: 19.2%
viability, T/C [27]: 30.8%
viability, T/C [28]: 22.3%
viability, T/C [29]: 3.91%
viability, T/C [30]: 3.07%
viability, T/C [31]: 18.3%
viability, T/C [32]: 20.8%
viability, T/C [33]: 18.5%
viability, T/C [34]: 20.4%
viability, T/C [35]: 1.4%
viability, T/C [36]: 3.39%

Cc1[nH]c2ccccc2c1CCNCc1ccc(/C=C/C(=O)NO)cc1 + Cc1[nH]c2ccc(F)cc2c1-c1nc2c3cccnc3c3ncccc3c2[nH]1
IC50 (second compound 0.0316 µM): 97.9 nM
IC50 (second compound 0.1 µM): 105 nM
IC50 (second compound 0.316 µM): 77.9 nM
IC50 (second compound 1 µM): 106 nM
IC50 (second compound 3.16 µM): < 0.999 nM
IC50 (second compound 10 µM): < 0.999 nM
viability, T/C (second compound 0.0316 µM, first compound 0.000999 µM): 86%
viability, T/C (second compound 0.0316 µM, first compound 0.00316 µM): 70.3%
viability, T/C (second compound 0.0316 µM, first compound 0.00999 µM): 77.2%
viability, T/C [1]: 98.1%
viability, T/C (second compound 0.0316 µM, first compound 0.0999 µM): 49.4%
viability, T/C [3]: 4.41%
viability, T/C (second compound 0.1 µM, first compound 0.000999 µM): 91.7%
viability, T/C (second compound 0.1 µM, first compound 0.00316 µM): 65.4%
viability, T/C (second compound 0.1 µM, first compound 0.00999 µM): 96.8%
viability, T/C [7]: 66.1%
viability, T/C (second compound 0.1 µM, first compound 0.0999 µM): 53.1%
viability, T/C [9]: 11.9%
viability, T/C (second compound 0.316 µM, first compound 0.000999 µM): 64.1%
viability, T/C (second compound 0.316 µM, first compound 0.00316 µM): 81.8%
viability, T/C (second compound 0.316 µM, first compound 0.00999 µM): 61.8%
viability, T/C [13]: 68.1%
viability, T/C (second compound 0.316 µM, first compound 0.0999 µM): 45.2%
viability, T/C [15]: 9.8%
viability, T/C (second compound 1 µM, first compound 0.000999 µM): 46.7%
viability, T/C (second compound 1 µM, first compound 0.00316 µM): 71.7%
viability, T/C (second compound 1 µM, first compound 0.00999 µM): 49.9%
viability, T/C [19]: 58.6%
viability, T/C (second compound 1 µM, first compound 0.0999 µM): 52.1%
viability, T/C [21]: 7.21%
viability, T/C (second compound 3.16 µM, first compound 0.000999 µM): 41.2%
viability, T/C (second compound 3.16 µM, first compound 0.00316 µM): 39.5%
viability, T/C (second compound 3.16 µM, first compound 0.00999 µM): 24.2%
viability, T/C [25]: 33.8%
viability, T/C (second compound 3.16 µM, first compound 0.0999 µM): 26%
viability, T/C [27]: 0.48%
viability, T/C (second compound 10 µM, first compound 0.000999 µM): 29.5%
viability, T/C (second compound 10 µM, first compound 0.00316 µM): 28.2%
viability, T/C (second compound 10 µM, first compound 0.00999 µM): 28.1%
viability, T/C [31]: 33.3%
viability, T/C (second compound 10 µM, first compound 0.0999 µM): 27.8%
viability, T/C [33]: 0.79%

COc1ccc([C@@H](O)c2cc(-c3ncnc4cc(N5CCOCC5)ccc34)c(F)cc2Cl)nn1 + Cc1cnc(CNC(=O)c2c(=O)c3ccc(N4CCCN(C)CC4)nc3n3c2sc2ccccc23)cn1
IC50 (second compound 0.0316 µM): 631 nM
IC50 (second compound 0.1 µM): 392 nM
IC50 (second compound 0.316 µM): 157 nM
IC50 (second compound 1 µM): < 31.6 nM
IC50 (second compound 3.16 µM): < 31.6 nM
IC50 (second compound 10 µM): < 31.6 nM
viability, T/C [1]: 59.5%
viability, T/C [2]: 67.4%
viability, T/C [3]: 71.8%
viability, T/C [4]: 39.2%
viability, T/C [5]: 27.8%
viability, T/C [6]: 20.3%
viability, T/C [7]: 49.8%
viability, T/C [8]: 65%
viability, T/C [9]: 48.9%
viability, T/C [10]: 41.4%
viability, T/C [11]: 26.3%
viability, T/C [12]: 16.8%
viability, T/C [13]: 47.6%
viability, T/C [14]: 60.9%
viability, T/C [15]: 44.6%
viability, T/C [16]: 34.8%
viability, T/C [17]: 25.6%
viability, T/C [18]: 13.4%
viability, T/C [19]: 32.3%
viability, T/C [20]: 42.6%
viability, T/C [21]: 34.8%
viability, T/C [22]: 28.4%
viability, T/C [23]: 17.2%
viability, T/C [24]: 5.89%
viability, T/C [25]: 5.04%
viability, T/C [26]: 14.9%
viability, T/C [27]: 16.5%
viability, T/C [28]: 0.16%
viability, T/C [29]: 0.14%
viability, T/C [30]: 0.29%
viability, T/C [31]: 0.11%
viability, T/C [32]: 0.16%
viability, T/C [33]: 0.16%
viability, T/C [34]: 0.2%
viability, T/C [35]: 0.17%
viability, T/C [36]: 0.15%
